The test deals with α-glucosidase (α-Glu). As to the kind of experiment: Screening of α-Glu inhibitors by fluorescence detection with guar gum-gold nanocluster-Fe3+ mixed dispersion (AAG substrate). In kind it is biochemical. Conditions: read from calibration curve of inhibitory efficiency vs concentration; third incubation 37° C. for 40 min, PBS pH=7.0, AAG substrate; fluorescence at 610 nm; read-out: IC50 (concentration of the inhibitor required to inhibit 50% α-Glu activity).

These results are taken from US12473583B2, “Use of guar gum, fluorescence-enhanced gold nanocluster, method for detecting alpha-glucosidase, and method for screening alpha-glucosidase inhibitor” (priority 2022, dated 2025).

Structures are written as SMILES.

Source text: The present disclosure further provides a method for screening an α-Glu inhibitor, including the following steps: • providing a fluorescence-enhanced gold nanocluster-Fe^3+ mixed dispersion, where a fluorescence-enhanced gold nanocluster in the fluorescence-enhanced gold nanocluster-Fe^3+ mixed dispersion is the fluorescence-enhanced gold nanocluster in the above technical solution; • mixing an α-Glu inhibitor solution to be tested, an α-Glu solution, an AAG solution, and a PBS, and conducting third incubation to obtain a third incubation solution; • mixing the third incubation solution with the fluorescence-enhanced gold nanocluster-Fe^3+ mixed dispersion, and conducting fourth incubation to obtain a fourth incubation solution; and • subjecting the fourth incubation solution to fluorescence detection, and plotting a calibration curve of the α-Glu inhibitor to be tested according to a fluorescence emission intensity obtained by the fluorescence detection; according to the calibration curve of the α-Glu inhibitor to be tested, obtaining an IC50 of the α-Glu inhibitor to be tested to screen the α-Glu inhibitor. […]
In the present disclosure, the third incubation solution is mixed with the fluorescence-enhanced gold nanocluster-Fe^3+ mixed dispersion, and the fourth incubation is conducted to obtain the fourth incubation solution. […]

On to `COc1ccc([C@@H]2CC(=O)c3c(O)cc(O[C@@H]4O[C@H](CO[C@@H]5O[C@@H](C)[C@H](O)[C@@H](O)[C@H]5O)[C@@H](O)[C@H](O)[C@H]4O)cc3O2)cc1O` [hesperidin], for which the IC50 was determined as 101 µM.
